Format in all cases: in vivo
Experiment [1] concerns Plutella xylostella. In words: B14b: Plutella xylostella (diamond back moth), larvicide L3, feeding/contact, Chinese cabbage. From the text: Activity of compounds P5, P17 and P21 according to the preparatory examples and of a compound from WO 21/083936 against Spodoptera littoralis (Example B6 above), Chilo suppressalis (Example B1 above), Diabrotica balteata (Example B14a below), Plutella xylostella (Example B14b below) and Pseudoplusia includens (Example B9 above) is summarized in Table B14. B14a: Diabrotica balteata (Corn root worm). Larvicide, feeding/contact 3 Corn seedlings were placed on wetted filter paper in plastic cups, and 3 ml of diluted test solutions were pipetted onto them. The cups were infested with 10 L2 larvae and checked for mortality and growth regulation 5 days after treatment. B14b: Plutella xylostella (Diamond back moth). Larvicide L3, feeding/contact Chinese cabbage plants were sprayed with diluted test solutions in an application chamber. Cut off leaves were placed into petri dishes with wetted filter paper and infested 1 day after application with 10 L3 larvae. Samples were assessed 4 days after infestation for mortality and growth regulation.

Experiment [2] has as its system Pseudoplusia includens. Kind of experiment: Example B9: Pseudoplusia includens (soybean looper), larvicide, feeding/contact, soybean plants. The settings on record: Chrysodeixis includens; for percent effect (mortality or growth inhibition) at 50 ppm: 120 h, L2 larvae, 5 days after infestation, read-out: effect in at least one of the two categories (mortality or growth inhibition). In short, it runs like this: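 Soybean plants sprayed, cut and held in dishes on wet filter paper; infested 1 d after application with 5 L2 larvae. Mortality and growth inhibition assessed 5 days after infestation; tested at 50 ppm.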

For experiment [3], the system named is Euschistus heros. Kind of experiment: Example B3: activity against Euschistus heros (neotropical brown stink bug), soybean leaves. Conditions: for percent effect (mortality or growth inhibition) at 200 ppm: 120 h, N2 nymphs, 5 days after infestation, read-out: effect in at least one of the two categories (mortality or growth inhibition). In short, it runs like this: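 Soybean leaves on agar sprayed with aqueous dilutions of DMSO stock (10′000 ppm), dried, then infested with N2 nymphs. Mortality and growth inhibition scored against untreated samples 5 days after infestation; application rate 200 ppm.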

Experiment [4] concerns Myzus persicae. In words: Example B4: activity against Myzus persicae (green peach aphid), intrinsic activity. The settings on record: 120 h, test rate 12 ppm, 5 days after infestation. In short, it runs like this:
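Compounds from 10′000 ppm DMSO stocks were mixed into sucrose solution in 24-well plates sealed with Parafilm. Aphid-infested pea seedlings were set on the membrane and the plate inverted so aphids fed through it. Mortality scored 5 days after infestation.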

Experiment [5] relates to Plutella xylostella. In words: Example B5: activity against Plutella xylostella (diamond back moth), artificial diet, eggs. The settings on record: 192 h, 8 days after infestation, read-out: effect in at least one of the two categories (mortality or growth inhibition). In short, it runs like this:
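Artificial diet in 24-well plates was treated with aqueous dilutions of DMSO stocks, dried, then infested with Plutella eggs. Mortality and growth inhibition were scored against untreated samples 8 days after infestation; application rate 200 ppm.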

The subject of experiment [6] is Diabrotica balteata. In words: Example B2: activity against Diabrotica balteata (corn root worm), maize sprouts. Conditions: 96 h, L2 larvae, 4 days after infestation, read-out: effect in at least one of the two categories (mortality or growth inhibition). The essentials:
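Maize sprouts on agar were sprayed with aqueous test solutions made from 10′000 ppm DMSO stocks, dried, then infested with 6–10 L2 larvae per well. Mortality and growth inhibition were scored against untreated samples 4 days after infestation, at an application rate of 200 ppm.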

Experiment [7] concerns Chilo suppressalis. In words: Example B1: activity against Chilo suppressalis (striped rice stemborer), artificial diet. Conditions: 144 h, 200 ppm, L2 larvae, 6 days after infestation, read-out: control (at least one of mortality, anti-feedant effect, growth inhibition). In short, it runs like this:
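Artificial diet treated with aqueous dilutions of DMSO stocks (10'000 ppm stock), dried, then infested with 6-8 L2 larvae per well. Mortality, anti-feeding and growth inhibition scored against untreated samples 6 days after infestation. Control counted when any category exceeds untreated.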

Experiment [8] concerns Myzus persicae. In words: Example B7b: Myzus persicae feeding/contact activity, eggplant leaf discs. Conditions: foliar, 144 h, mixed ages, 6 days after infestation. How it is done: Eggplant leaf discs were placed onto agar in a 24-well microtiter plate and sprayed with aqueous test solutions prepared from 10′000 ppm DMSO stock solutions. After drying, the leaf discs were infested with an aphid population of mixed ages. The samples were assessed for mortality 6 days after infestation.

Experiment [9] relates to Spodoptera littoralis. In words: Example B6: activity against Spodoptera littoralis (Egyptian cotton leaf worm), cotton leaf discs. The settings on record: foliar, 72 h, 200 ppm, L1 larvae, 3 days after infestation, read-out: control (at least one of mortality, anti-feedant effect, growth inhibition). In short, it runs like this: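 Leaf discs on agar; spray, aqueous dilution of 10′000 ppm DMSO stock; dry; 5 L1 larvae/disc. Read at 3 d post-infestation: mortality, antifeedant, growth inhibition vs untreated. Control = ≥1 category above untreated.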

In experiment [10] the test system is Carpocapsa (Cydia) pomonella. Kind of experiment: Example B10: Carpocapsa (Cydia) pomonella (codling moth), larvicide, feeding/contact, diet cubes. Conditions: 336 h, L1 larvae, 14 days after infestation, read-out: effect in at least one of the two categories (mortality or growth inhibition). How it is done: Diet cubes coated with paraffin were sprayed with diluted test solutions in an application chamber. After drying off the treated cubes (10 replicates) were infested with 1 L1 larvae. Samples were incubated at 26-27° C. and checked 14 days after infestation for mortality and growth inhibition. The following compounds gave an effect of at least 80% in at least one of the two categories (mortality or growth inhibition) at an application rate of 50 ppm: […]

Here are results for eleven molecules from patent US20260132125A1, “PESTICIDALLY ACTIVE FUSED BICYCLIC HETEROAROMATIC COMPOUNDS” (priority 2022, published 2026).

As usually defined, the mortality is the percentage killed. A higher mortality goes with fewer survivors.

On to `C[C@H](Nc1ncnc2c(C(F)(F)F)cc(Cl)cc12)c1ncnn1-c1ncccn1` [WO 21/083936 P.24, reference compound], for which the mortality at 0.8 ppm is 5% in experiment [1] and 0% in experiment [2] (Pseudoplusia includens, 0.8 ppm). The mortality at 200 ppm in experiment [3] was 0%.
`CC(Nc1ncnc2c(Br)cc(Br)cc12)c1ncnn1-c1ncccn1` (centres unmarked) [WO 21/083936 P.29, reference compound]: the results for the mortality at 3 ppm in experiment [1] and in experiment [2] (Pseudoplusia includens) were 60% and 30%, respectively. In experiment [3], this molecule came in with a mortality at 200 ppm of 0%.
Consider `C[C@H](Nc1ncnc2c(C(F)(F)F)cc(Cl)cc12)c1ncnn1-c1cc(C(=O)NCC#N)ncn1` [Compound P38, 6-[5-[(1S)-1-[[6-chloro-8-(trifluoromethyl)quinazolin-4-yl]amino]ethyl]-1,2,4-triazol-1-yl]-N-(cyanomethyl)pyrimidine-4-carboxamide], for which the mortality at 12 ppm in [4] was at least 80%. Further, the percent effect (mortality or growth inhibition) at 200 ppm in experiment [5], in experiment [6] and in experiment [3] was at least 80% in each case. Besides, the percent effect (mortality or growth inhibition) at 50 ppm in experiment [2] was at least 80%. Besides, the percent control (mortality, anti-feedant effect or growth inhibition) at 200 ppm in [7] and in [9] was at least 80% in each case. This molecule yielded a mortality at 200 ppm in experiment [8] of at least 80%.
Regarding `C[C@@H](c1ncnn1-c1cc(C(=O)NCC#N)ncn1)N(C)c1ncnc2c(C(F)(F)F)cc(Cl)cc12` [Compound P52, 6-[5-[(1S)-1-[[6-chloro-8-(trifluoromethyl)quinazolin-4-yl]-methyl-amino]ethyl]-1,2,4-triazol-1-yl]-N-(cyanomethyl)pyrimidine-4-carboxamide], the mortality at 12 ppm in experiment [4] was at least 80%. For the same molecule, the percent effect (mortality or growth inhibition) at 200 ppm in experiment [5], in experiment [6] and in [3] was at least 80% in each case. In addition, the percent effect (mortality or growth inhibition) at 50 ppm in experiment [2] was at least 80%. For the same molecule, the percent control (mortality, anti-feedant effect or growth inhibition) at 200 ppm in experiment [7] and in [9] was at least 80% each time. In experiment [8], the mortality at 200 ppm was at least 80%.
In the case of `C[C@H](Nc1ncnc2c(C(F)(F)F)cc(I)cc12)c1ncnn1-c1cc(C(N)=O)ncn1` [Compound P1, 6-[5-[(1S)-1-[[6-iodo-8-(trifluoromethyl)quinazolin-4-yl]amino]ethyl]-1,2,4-triazol-1-yl]pyrimidine-4-carboxamide], the mortality at 12 ppm in experiment [4] was at least 80%. In addition, the percent effect (mortality or growth inhibition) at 200 ppm in experiment [5], in experiment [6] and in experiment [3] was at least 80% throughout. Moreover, the percent effect (mortality or growth inhibition) at 50 ppm in experiment [10] and in experiment [2] was at least 80% throughout. Besides, the percent control (mortality, anti-feedant effect or growth inhibition) at 200 ppm in [7] and in experiment [9] was at least 80% each time.
`C[C@H](Nc1ncnc2c(Cl)cc(C(F)(F)F)cc12)c1ncnn1-c1ncccn1` [WO 21/083936 P.18, reference compound] came in with a mortality at 0.8 ppm in [1] of 65%. The mortality at 3 ppm in [2] (Pseudoplusia includens) worked out at 40%. Further, the mortality at 200 ppm in [3] came to 0%.
`CNC(=O)c1cc(-n2ncnc2[C@H](C)N(C)c2ncnc3c(S(=O)(=O)C(F)(F)F)cc(Cl)cc23)ncn1` [Compound P61] displayed a mortality at 12 ppm in [4] of at least 80%. For the same molecule, the percent effect (mortality or growth inhibition) at 200 ppm in experiment [5], in experiment [6] and in experiment [3] was at least 80% each time. Also, the percent effect (mortality or growth inhibition) at 50 ppm in experiment [2] is at least 80%. In addition, the percent control (mortality, anti-feedant effect or growth inhibition) at 200 ppm in [7] and in [9] was at least 80% each time. Further, in experiment [8], the mortality at 200 ppm was at least 80%.
On to `C[C@H](Nc1ncnc2c(Br)cc(Br)cc12)c1ncnn1-c1cc(C(N)=O)ncn1` [Compound P10, 6-[5-[(1S)-1-[(6,8-dibromoquinazolin-4-yl)amino]ethyl]-1,2,4-triazol-1-yl]pyrimidine-4-carboxamide], for which the mortality at 3 ppm was 100% in [1] and 80% in [2] (Pseudoplusia includens). The same molecule had a mortality at 12 ppm in experiment [4] of at least 80%. In addition, the percent effect (mortality or growth inhibition) at 200 ppm in experiment [5] and in experiment [6] was at least 80% each time. Moreover, the percent effect (mortality or growth inhibition) at 50 ppm in experiment [10] and in experiment [2] was at least 80% in each case. The percent control (mortality, anti-feedant effect or growth inhibition) at 200 ppm in experiment [7] and in experiment [9] was at least 80% in each case. Also, in [3], the mortality at 200 ppm amounted to 0%.
As to `C[C@@H](c1ncnn1-c1cc(C(=O)NCCC#N)ncn1)N(C)c1ncnc2c(C(F)(F)F)cc(Cl)cc12` [Compound P53, 6-[5-[(1S)-1-[[6-chloro-8-(trifluoromethyl)quinazolin-4-yl]-methyl-amino]ethyl]-1,2,4-triazol-1-yl]-N-(2-cyanoethyl)pyrimidine-4-carboxamide], the mortality at 12 ppm in experiment [4] is at least 80%. In addition, the percent effect (mortality or growth inhibition) at 200 ppm in [5] and in experiment [6] was at least 80% throughout. For the same molecule, the percent effect (mortality or growth inhibition) at 50 ppm in experiment [10] and in [2] was at least 80% in each case. Further, the percent control (mortality, anti-feedant effect or growth inhibition) at 200 ppm in experiment [7] and in [9] was at least 80% each time.
In [4], `CNC(=O)c1cc(-n2ncnc2[C@H](C)Nc2ncnc3c(C(F)(F)F)cc(Cl)cc23)ncn1` [Compound P3, 6-[5-[(1S)-1-[[6-chloro-8-(trifluoromethyl)quinazolin-4-yl]amino]ethyl]-1,2,4-triazol-1-yl]-N-methyl-pyrimidine-4-carboxamide] registered a mortality at 12 ppm of at least 80%. Also, the percent effect (mortality or growth inhibition) at 200 ppm in [5], in experiment [6] and in experiment [3] was at least 80% in each case. In addition, the percent effect (mortality or growth inhibition) at 50 ppm in experiment [10] and in experiment [2] was at least 80% in each case. Besides, the percent control (mortality, anti-feedant effect or growth inhibition) at 200 ppm in experiment [7] and in experiment [9] was at least 80% throughout.
`CCN(C)C(=O)c1cc(-n2ncnc2[C@H](C)N(C)c2ncnc3c(C(F)(F)F)cc(Cl)cc23)ncn1` [Compound P55, 6-[5-[(1S)-1-[[6-chloro-8-(trifluoromethyl)quinazolin-4-yl]-methyl-amino]ethyl]-1,2,4-triazol-1-yl]-N-ethyl-N-methyl-pyrimidine-4-carboxamide] showed a mortality at 12 ppm in [4] of at least 80%. Further, the percent effect (mortality or growth inhibition) at 200 ppm in [5], in experiment [6] and in experiment [3] was at least 80% in each case. For the same molecule, the percent effect (mortality or growth inhibition) at 50 ppm in experiment [2] was at least 80%. The percent control (mortality, anti-feedant effect or growth inhibition) at 200 ppm in [7] and in experiment [9] was at least 80% each time. In addition, the mortality at 200 ppm in [8] was at least 80%.
